± gives the standard deviation of the averaged measurements.
Key:
IMATINIB = compound: Cc1ccc(NC(=O)c2ccc(CN3CCN(C)CC3)cc2)cc1Nc1nccc(-c2cccnc2)n1 [IMATINIB]; assay: surviving fraction relative to DMSO-only wells; higher = less growth inhibition; settings: exposure time: 5 days
Procedure, shortened: (§1)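 For each tumour cell line, log-phase cells were put into 384-well plates at 250–500 cells per well, then after 24 hours exposed continuously for five days to inhibitors at 0.5, 1, 5, 10, 50, 100, 500 and 1000 nM. Viability was assessed by CellTiter-Glo luminescence, with surviving fraction expressed relative to the median of DMSO-only wells. Lines were screened three times and retained only if replicate Pearson r exceeded 0.7 and median Z' exceeded 0.3.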

CABOZANTINIB = compound: COc1cc2nccc(Oc3ccc(NC(=O)C4(C(=O)Nc5ccc(F)cc5)CC4)cc3)c2cc1OC [CABOZANTINIB]; assay: as above; settings: exposure time: 5 days
Procedure, shortened: as §1

Test System | surviving fraction (IMATINIB; 0.5 nM) | surviving fraction (IMATINIB; 1 nM) | surviving fraction (IMATINIB; 5 nM) | surviving fraction (IMATINIB; 10 nM) | surviving fraction (IMATINIB; 50 nM) | surviving fraction (IMATINIB; 100 nM) | surviving fraction (IMATINIB; 1000 nM) | surviving fraction (CABOZANTINIB; 0.5 nM) | surviving fraction (CABOZANTINIB; 1 nM) | surviving fraction (CABOZANTINIB; 5 nM) | surviving fraction (CABOZANTINIB; 10 nM) | surviving fraction (CABOZANTINIB; 50 nM) | surviving fraction (CABOZANTINIB; 100 nM) | surviving fraction (CABOZANTINIB; 500 nM) | surviving fraction (CABOZANTINIB; 1000 nM) | surviving fraction (IMATINIB; 500 nM)
CHLA90 AUTONOMIC GANGLIA | 1 ± 0.022 | 1.02 ± 0.071 | 0.993 ± 0.063 | 0.98 ± 0.12 | 1.12 ± 0.084 | 1.02 ± 0.091 | 1.11 ± 0.079 | 0.917 ± 0.024 | 0.936 ± 0.052 | 0.9 ± 0.065 | 0.863 ± 0.016 | 0.913 ± 0.023 | 0.907 ± 0.072 | 0.868 ± 0.11 | 0.856 ± 0.097 | –
JIMT1 BREAST | 1.04 ± 0.047 | 1 ± 0.051 | 1.03 ± 0.029 | 0.99 ± 0.028 | – | 1.08 ± 0.039 | 1.03 ± 0.045 | 1.03 ± 0.049 | 1.04 ± 0.025 | 1.07 ± 0.029 | 1.04 ± 0.049 | 1.13 ± 0.048 | 1.1 ± 0.033 | 1.04 ± 0.043 | 1 ± 0.039 | 1.03 ± 0.056
RDES SOFT TISSUE | 1.37 ± 0.084 | 1.45 ± 0.048 | 1.21 ± 0.1 | 1.22 ± 0.019 | 1.12 ± 0.1 | 1.21 ± 0.1 | 1.18 ± 0.082 | 1.2 ± 0.077 | 1.09 ± 0.1 | 1.21 ± 0.064 | 1.13 ± 0.083 | 1.23 ± 0.12 | 1.09 ± 0.076 | 1.1 ± 0.03 | 1.22 ± 0.22 | 1.24 ± 0.13
NOS1 BONE | 1.18 ± 0.11 | 1.12 ± 0.041 | 1.2 ± 0.085 | 1.13 ± 0.11 | – | 1.06 ± 0.15 | 0.898 ± 0.039 | 1.09 ± 0.062 | 1.08 ± 0.012 | 1.12 ± 0.078 | 1.16 ± 0.073 | 0.944 ± 0.029 | 0.841 ± 0.04 | 0.68 ± 0.077 | 0.579 ± 0.041 | 0.883 ± 0.14
HCC78 LUNG | 0.936 ± 0.094 | 1.03 ± 0.16 | 0.997 ± 0.043 | – | 1.04 ± 0.072 | – | 1.18 ± 0.091 | 0.826 ± 0.047 | 0.884 ± 0.047 | 0.991 ± 0.044 | 0.608 ± 0.16 | 0.315 ± 0.049 | 0.281 ± 0.088 | 0.185 ± 0.023 | 0.221 ± 0.058 | 1.34 ± 0.16
NY BONE | 1.08 ± 0.021 | 1.08 ± 0.022 | 1.12 ± 0.051 | 1.1 ± 0.013 | 1.107 ± 0.0076 | 1.11 ± 0.025 | 1.03 ± 0.019 | 0.9253 ± 0.009 | 0.98 ± 0.036 | 1.02 ± 0.016 | 0.989 ± 0.024 | 0.9377 ± 0.0067 | 0.887 ± 0.011 | 0.784 ± 0.022 | 0.768 ± 0.026 | 1.04 ± 0.043
T47D BREAST | 1.08 ± 0.042 | 1.05 ± 0.016 | 1.1 ± 0.02 | 1.05 ± 0.066 | 1.13 ± 0.027 | 1.08 ± 0.036 | 1.07 ± 0.056 | 0.969 ± 0.016 | 0.988 ± 0.028 | 1.02 ± 0.038 | 1.04 ± 0.075 | 1.059 ± 0.0083 | 1.07 ± 0.021 | 1.07 ± 0.034 | 1.03 ± 0.022 | 1.1 ± 0.068
SG28 HEADNECK | 1.25 ± 0.093 | 1.11 ± 0.12 | – | – | – | – | 1.14 ± 0.096 | 1.07 ± 0.047 | 1.12 ± 0.061 | 0.968 ± 0.099 | 0.959 ± 0.023 | 1 ± 0.06 | 1 ± 0.16 | 1.06 ± 0.058 | 1.19 ± 0.26 | 1.18 ± 0.11
SUM159 BREAST | – | 1.11 ± 0.015 | 1.11 ± 0.024 | 1.101 ± 0.0045 | 1.126 ± 0.009 | – | – | 1.02 ± 0.03 | 1.02 ± 0.028 | 1.01 ± 0.026 | 1.01 ± 0.036 | 1 ± 0.025 | 1.01 ± 0.034 | 0.986 ± 0.036 | 0.977 ± 0.025 | 1.14 ± 0.02
MDAMB134 BREAST | 0.896 ± 0.08 | – | – | 0.86 ± 0.057 | 1.02 ± 0.093 | 1.11 ± 0.024 | 0.814 ± 0.15 | 0.902 ± 0.12 | 0.888 ± 0.047 | 0.896 ± 0.13 | 1.04 ± 0.14 | 0.907 ± 0.23 | 0.943 ± 0.0042 | 0.955 ± 0.086 | 0.873 ± 0.086 | 0.994 ± 0.17
SG27 HEADNECK | – | – | 1.02 ± 0.16 | 1.13 ± 0.088 | 1.01 ± 0.079 | 1.17 ± 0.21 | 1.14 ± 0.068 | 1.02 ± 0.036 | 1.06 ± 0.021 | 0.971 ± 0.054 | 0.996 ± 0.1 | 1.14 ± 0.079 | 1.03 ± 0.13 | 0.975 ± 0.14 | 0.9483 ± 0.007 | 1.09 ± 0.18
93VU HEADNECK | 1.11 ± 0.14 | 1.13 ± 0.1 | 1.18 ± 0.019 | – | 1.3 ± 0.099 | 1.25 ± 0.047 | 1.1 ± 0.079 | 0.824 ± 0.084 | 0.841 ± 0.026 | 0.916 ± 0.028 | 1.01 ± 0.14 | 1.02 ± 0.084 | 0.967 ± 0.05 | 0.777 ± 0.042 | 0.71 ± 0.051 | 1.29 ± 0.074
HCC1954 BREAST | 1.2 ± 0.15 | 1.28 ± 0.091 | 1.23 ± 0.12 | 1.27 ± 0.045 | 0.9283 ± 0.006 | 0.887 ± 0.025 | 1 ± 0.0071 | 0.955 ± 0.018 | 1.04 ± 0.02 | 1.03 ± 0.13 | 1.02 ± 0.16 | 1.1 ± 0.073 | 0.921 ± 0.0035 | 1.0215 ± 0.00071 | 1.02 ± 0.055 | 1.07 ± 0.1
S68 BREAST | 0.783 ± 0.22 | 0.996 ± 0.18 | 1.13 ± 0.17 | – | 1.25 ± 0.47 | 1.28 ± 0.29 | 0.868 ± 0.081 | 1.05 ± 0.1 | 0.948 ± 0.075 | 0.937 ± 0.071 | 1.32 ± 0.15 | 1.2 ± 0.23 | 1.24 ± 0.41 | 0.986 ± 0.24 | 0.889 ± 0.23 | 1.11 ± 0.28
PCI30 HEADNECK | – | 0.943 ± 0.017 | – | 1.08 ± 0.11 | 1.13 ± 0.042 | 1.13 ± 0.024 | 0.981 ± 0.038 | 0.86 ± 0.039 | 0.864 ± 0.05 | 0.954 ± 0.066 | 1.07 ± 0.048 | 1 ± 0.019 | 1.03 ± 0.057 | 0.841 ± 0.036 | 0.84 ± 0.15 | 1.06 ± 0.067
MCF7 BREAST | 0.988 ± 0.064 | – | 0.97 ± 0.03 | 0.955 ± 0.062 | 1.04 ± 0.018 | 1.01 ± 0.033 | 0.986 ± 0.014 | 0.907 ± 0.019 | 0.836 ± 0.012 | 0.852 ± 0.029 | 0.863 ± 0.033 | 0.889 ± 0.015 | 0.933 ± 0.032 | 0.88 ± 0.066 | 0.91 ± 0.075 | 1.05 ± 0.043
HOSMNG BONE | 1.04 ± 0.12 | 1.01 ± 0.067 | 0.994 ± 0.085 | 1 ± 0.019 | 1.09 ± 0.1 | 1.14 ± 0.073 | 1.07 ± 0.14 | 0.961 ± 0.061 | 0.984 ± 0.053 | 0.885 ± 0.036 | 0.913 ± 0.1 | 0.833 ± 0.038 | 0.839 ± 0.018 | 0.314 ± 0.0085 | 0.274 ± 0.011 | –
SJSA1 BONE | 1.65 ± 0.051 | 1.71 ± 0.075 | 1.64 ± 0.1 | 1.83 ± 0.1 | 0.61 ± 0.12 | 1.36 ± 0.01 | 1.33 ± 0.024 | 1.47 ± 0.13 | 1.63 ± 0.045 | 1.56 ± 0.07 | 1.75 ± 0.071 | 1.627 ± 0.0032 | 1.74 ± 0.13 | 1.65 ± 0.059 | 1.78 ± 0.089 | 1.65 ± 0.039
HCT15 LARGE INTESTINE | 1.13 ± 0.027 | 1.1 ± 0.035 | 1.12 ± 0.024 | 1.12 ± 0.038 | 1.15 ± 0.08 | 1.119 ± 0.011 | 1.14 ± 0.046 | 0.952 ± 0.044 | 0.95 ± 0.06 | 0.943 ± 0.044 | 0.951 ± 0.073 | 0.966 ± 0.036 | 1.02 ± 0.037 | 0.994 ± 0.065 | 1.04 ± 0.06 | 1.18 ± 0.054
SG32 HEADNECK | – | – | 1.2 ± 0.18 | – | – | 1 ± 0.14 | 1.21 ± 0.16 | 1.06 ± 0.18 | 1 ± 0.17 | 0.922 ± 0.1 | 1.04 ± 0.29 | 0.901 ± 0.1 | 0.961 ± 0.13 | 0.968 ± 0.1 | 0.711 ± 0.05 | 1.17 ± 0.052
CADOES1 SOFT TISSUE | 0.94 ± 0.11 | 0.897 ± 0.035 | 0.926 ± 0.08 | 0.872 ± 0.012 | – | 0.948 ± 0.02 | 1.05 ± 0.14 | 0.946 ± 0.15 | 0.895 ± 0.081 | 0.994 ± 0.054 | 0.914 ± 0.15 | 0.858 ± 0.16 | 0.877 ± 0.034 | 0.976 ± 0.056 | 0.878 ± 0.17 | 1.03 ± 0.085
CME SYNOVIAL | 1.27 ± 0.17 | 1.4 ± 0.045 | 1.28 ± 0.03 | 1.24 ± 0.16 | 1.22 ± 0.1 | 1.37 ± 0.042 | 1.14 ± 0.055 | 1.23 ± 0.11 | 1.24 ± 0.16 | 1.24 ± 0.11 | 1.21 ± 0.042 | 1.2 ± 0.046 | 1.19 ± 0.15 | 1.1 ± 0.071 | 1.01 ± 0.12 | 1.15 ± 0.047
